{"source": "paper PMC11012124", "about": "“Synthesis of Novel Triazine-Based Chalcones and 8,9-dihydro-7H-pyrimido[4,5-b][1,4]diazepines as Potential Leads in the Search of Anticancer, Antibacterial and Antifungal Agents” (International Journal of Molecular Sciences, 2024)", "assay_in_all_cases": "cells", "key": {"SK-MEL-28": {"test_system": "SK-MEL-28", "settings": "Homo sapiens, SK-MEL-28, 48 h"}, "HOP-62": {"test_system": "HOP-62", "settings": "Homo sapiens, HOP-62, 48 h"}, "MALME-3M": {"test_system": "MALME-3M", "settings": "Homo sapiens, 48 h"}, "UACC-257": {"test_system": "UACC-257", "settings": "Homo sapiens, UACC-257, 48 h"}, "HS 578T": {"test_system": "HS 578T", "settings": "Homo sapiens, 48 h"}, "MDA-MB-468": {"test_system": "MDA-MB-468", "settings": "Homo sapiens, MDA-MB-468, 48 h"}, "KM12": {"test_system": "KM12", "settings": "Homo sapiens, KM12, 48 h"}, "A498": {"test_system": "A498", "settings": "Homo sapiens, A498, 48 h"}, "HT29": {"test_system": "HT29", "settings": "Homo sapiens, HT-29, 48 h"}, "RXF 393": {"test_system": "RXF 393", "settings": "Homo sapiens, RXF 393, 48 h"}, "SF-539": {"test_system": "SF-539", "settings": "Homo sapiens, SF-539, 48 h"}, "OVCAR-4": {"test_system": "OVCAR-4", "settings": "Homo sapiens, OVCAR-4, 48 h"}, "OVCAR-3": {"test_system": "OVCAR-3", "settings": "Homo sapiens, OVCAR-3, 48 h"}, "SN12C": {"test_system": "SN12C", "settings": "Homo sapiens, 48 h"}, "TK-10": {"test_system": "TK-10", "settings": "Homo sapiens, TK-10, 48 h"}, "786-0": {"test_system": "786-0", "settings": "Homo sapiens, 786-0, 48 h"}, "M14": {"test_system": "M14", "settings": "Homo sapiens, M14, 48 h"}, "SK-MEL-5": {"test_system": "SK-MEL-5", "settings": "Homo sapiens, SK-MEL-5, 48 h"}, "SF-268": {"test_system": "SF-268", "settings": "Homo sapiens, SF-268, 48 h"}, "CAKI-1": {"test_system": "CAKI-1", "settings": "Homo sapiens, CAKI-1, 48 h"}, "COLO 205": {"test_system": "COLO 205", "settings": "Homo sapiens, COLO 205, 48 h"}, "NCI-H460": {"test_system": "NCI-H460", "settings": "Homo sapiens, NCI-H460, 48 h"}, "NCI-H322M": {"test_system": "NCI-H322M", "settings": "Homo sapiens, 48 h"}, "OVCAR-8": {"test_system": "OVCAR-8", "settings": "Homo sapiens, OVCAR-8, 48 h"}, "SF-295": {"test_system": "SF-295", "settings": "Homo sapiens, SF-295, 48 h"}, "CCRF-CEM": {"test_system": "CCRF-CEM", "settings": "Homo sapiens, 48 h, read-out: LC50"}, "UACC-62": {"test_system": "UACC-62", "settings": "Homo sapiens, UACC-62, 48 h"}, "UO-31": {"test_system": "UO-31", "settings": "Homo sapiens, UO-31, 48 h, read-out: LC50"}, "SK-OV-3": {"test_system": "SK-OV-3", "settings": "Homo sapiens, SK-OV-3, 48 h"}, "OVCAR-5": {"test_system": "OVCAR-5", "settings": "Homo sapiens, OVCAR-5, 48 h"}, "HL-60(TB)": {"test_system": "HL-60(TB)", "settings": "Homo sapiens, HL-60, 48 h"}, "HCC-2998": {"test_system": "HCC-2998", "settings": "Homo sapiens, HCC 2998, 48 h"}, "K-562": {"test_system": "K-562", "settings": "Homo sapiens, K562, 48 h"}, "SNB-75": {"test_system": "SNB-75", "settings": "Homo sapiens, SNB-75, 48 h"}, "MCF7": {"test_system": "MCF7", "settings": "Homo sapiens, MCF7, 48 h"}, "EKVX": {"test_system": "EKVX", "settings": "Homo sapiens, 48 h"}, "HCT-15": {"test_system": "HCT-15", "settings": "Homo sapiens, HCT-15, 48 h"}}, "data": [{"compound": "COc1cc(C2CC(c3ccc(Cl)cc3)=Nc3c(N)nc(N)nc3N2)ccc1Oc1nc(Nc2ccc(F)cc2)nc(N(C)C)n1", "note": "(stereo not drawn) [29e]", "values": [{"measurement": "GI50", "setting": "SK-MEL-28", "value": "> 100", "unit": "µM"}, {"measurement": "CC50", "setting": "SK-MEL-28; read-out: LC50", "value": "> 100", "unit": "µM"}, {"measurement": "GI50", "setting": "HOP-62", "value": "> 100", "unit": "µM"}, {"measurement": "CC50", "setting": "HOP-62; read-out: LC50", "value": "> 100", "unit": "µM"}, {"measurement": "GI50", "setting": "MALME-3M", "value": "> 100", "unit": "µM"}, {"measurement": "CC50", "setting": "MALME-3M; read-out: LC50", "value": "> 100", "unit": "µM"}, {"measurement": "GI50", "setting": "UACC-257", "value": "> 100", "unit": "µM"}, {"measurement": "CC50", "setting": "UACC-257; read-out: LC50", "value": "> 100", "unit": "µM"}, {"measurement": "GI50", "setting": "HS 578T", "value": 84.8, "unit": "µM"}, {"measurement": "CC50", "setting": "HS 578T; read-out: LC50", "value": "> 100", "unit": "µM"}, {"measurement": "GI50", "setting": "MDA-MB-468", "value": 17.8, "unit": "µM"}, {"measurement": "CC50", "setting": "MDA-MB-468; read-out: LC50", "value": "> 100", "unit": "µM"}, {"measurement": "GI50", "setting": "KM12", "value": 40.1, "unit": "µM"}, {"measurement": "CC50", "setting": "KM12; read-out: LC50", "value": "> 100", "unit": "µM"}, {"measurement": "GI50", "setting": "A498", "value": "> 100", "unit": "µM"}, {"measurement": "CC50", "setting": "A498; read-out: LC50", "value": "> 100", "unit": "µM"}, {"measurement": "GI50", "setting": "HT29", "value": 29.4, "unit": "µM"}, {"measurement": "CC50", "setting": "HT29; read-out: LC50", "value": "> 100", "unit": "µM"}, {"measurement": "GI50", "setting": "RXF 393", "value": 2.46, "unit": "µM"}, {"measurement": "CC50", "setting": "RXF 393; read-out: LC50", "value": "> 100", "unit": "µM"}, {"measurement": "GI50", "setting": "SF-539", "value": "> 100", "unit": "µM"}, {"measurement": "CC50", "setting": "SF-539; read-out: LC50, SF-539, 48 h", "value": "> 100", "unit": "µM"}, {"measurement": "GI50", "setting": "OVCAR-4", "value": 18.9, "unit": "µM"}, {"measurement": "CC50", "setting": "OVCAR-4; read-out: LC50", "value": "> 100", "unit": "µM"}, {"measurement": "GI50", "setting": "OVCAR-3", "value": "> 100", "unit": "µM"}, {"measurement": "CC50", "setting": "OVCAR-3; read-out: LC50", "value": "> 100", "unit": "µM"}, {"measurement": "GI50", "setting": "SN12C", "value": "> 100", "unit": "µM"}, {"measurement": "CC50", "setting": "SN12C; read-out: LC50", "value": "> 100", "unit": "µM"}, {"measurement": "GI50", "setting": "TK-10", "value": "> 100", "unit": "µM"}, {"measurement": "CC50", "setting": "TK-10; read-out: LC50", "value": "> 100", "unit": "µM"}, {"measurement": "GI50", "setting": "786-0", "value": "> 100", "unit": "µM"}, {"measurement": "CC50", "setting": "786-0; read-out: LC50", "value": "> 100", "unit": "µM"}, {"measurement": "GI50", "setting": "M14", "value": "> 100", "unit": "µM"}, {"measurement": "CC50", "setting": "M14; read-out: LC50", "value": "> 100", "unit": "µM"}, {"measurement": "GI50", "setting": "SK-MEL-5", "value": 17.2, "unit": "µM"}, {"measurement": "CC50", "setting": "SK-MEL-5; read-out: LC50", "value": "> 100", "unit": "µM"}, {"measurement": "GI50", "setting": "SF-268", "value": "> 100", "unit": "µM"}, {"measurement": "CC50", "setting": "SF-268; read-out: LC50", "value": "> 100", "unit": "µM"}, {"measurement": "GI50", "setting": "CAKI-1", "value": 3.38, "unit": "µM"}, {"measurement": "CC50", "setting": "CAKI-1; read-out: LC50", "value": "> 100", "unit": "µM"}, {"measurement": "GI50", "setting": "COLO 205", "value": "> 100", "unit": "µM"}, {"measurement": "CC50", "setting": "COLO 205; read-out: LC50", "value": "> 100", "unit": "µM"}, {"measurement": "GI50", "setting": "NCI-H460", "value": 42.3, "unit": "µM"}, {"measurement": "CC50", "setting": "NCI-H460; read-out: LC50", "value": "> 100", "unit": "µM"}, {"measurement": "GI50", "setting": "NCI-H322M", "value": "> 100", "unit": "µM"}, {"measurement": "CC50", "setting": "NCI-H322M; read-out: LC50", "value": "> 100", "unit": "µM"}, {"measurement": "GI50", "setting": "OVCAR-8", "value": "> 100", "unit": "µM"}, {"measurement": "CC50", "setting": "OVCAR-8; read-out: LC50", "value": "> 100", "unit": "µM"}, {"measurement": "GI50", "setting": "SF-295", "value": "> 100", "unit": "µM"}, {"measurement": "CC50", "setting": "SF-295; read-out: LC50", "value": "> 100", "unit": "µM"}, {"measurement": "CC50", "setting": "CCRF-CEM", "value": "> 100", "unit": "µM"}, {"measurement": "GI50", "setting": "UACC-62", "value": "> 100", "unit": "µM"}, {"measurement": "CC50", "setting": "UACC-62; read-out: LC50", "value": "> 100", "unit": "µM"}, {"measurement": "CC50", "setting": "UO-31", "value": "> 100", "unit": "µM"}, {"measurement": "GI50", "setting": "SK-OV-3", "value": "> 100", "unit": "µM"}, {"measurement": "CC50", "setting": "SK-OV-3; read-out: LC50", "value": "> 100", "unit": "µM"}, {"measurement": "GI50", "setting": "OVCAR-5", "value": "> 100", "unit": "µM"}, {"measurement": "CC50", "setting": "OVCAR-5; read-out: LC50", "value": "> 100", "unit": "µM"}, {"measurement": "GI50", "setting": "HL-60(TB)", "value": 44.7, "unit": "µM"}, {"measurement": "CC50", "setting": "HL-60(TB); read-out: LC50", "value": "> 100", "unit": "µM"}, {"measurement": "GI50", "setting": "HCC-2998", "value": 45.3, "unit": "µM"}, {"measurement": "CC50", "setting": "HCC-2998; read-out: LC50", "value": "> 100", "unit": "µM"}, {"measurement": "GI50", "setting": "K-562; K-562, 48 h", "value": 4.5, "unit": "µM"}, {"measurement": "CC50", "setting": "K-562; read-out: LC50", "value": "> 100", "unit": "µM"}, {"measurement": "GI50", "setting": "SNB-75", "value": 3.24, "unit": "µM"}, {"measurement": "CC50", "setting": "SNB-75; read-out: LC50", "value": "> 100", "unit": "µM"}, {"measurement": "GI50", "setting": "MCF7", "value": 9.9, "unit": "µM"}, {"measurement": "CC50", "setting": "MCF7; read-out: LC50", "value": "> 100", "unit": "µM"}, {"measurement": "GI50", "setting": "EKVX", "value": "> 100", "unit": "µM"}, {"measurement": "CC50", "setting": "EKVX; read-out: LC50", "value": "> 100", "unit": "µM"}, {"measurement": "GI50", "setting": "HCT-15", "value": 76.6, "unit": "µM"}, {"measurement": "CC50", "setting": "HCT-15; read-out: LC50", "value": "> 100", "unit": "µM"}]}]}
